Our source for the IC50 values is US20240409585A1, “MACROCYCLIC IMMUNOMODULATORS” (priority 2021, published 2024).

Bridge positions count the residues as written; N and C are the ends. Square brackets hold non-standard residues; d marks the D form. Peptide text beside a SMILES is read from it. * marks the point of attachment. Phe(4-COOH) = N[C@@H](Cc1ccc(C(=O)O)cc1)C(=O)O; Bip = N[C@@H](Cc1ccc(-c2ccccc2)cc1)C(=O)O; Phe(3-OMe) = COc1cccc(C[C@H](N)C(=O)O)c1; Phe(4-CN) = N#Cc1ccc(C[C@H](N)C(=O)O)cc1; Phe(3-Me) = Cc1cccc(C[C@H](N)C(=O)O)c1; 3Pal = N[C@@H](Cc1cccnc1)C(=O)O; 4Pal = N[C@@H](Cc1ccncc1)C(=O)O; Cha = N[C@@H](CC1CCCCC1)C(=O)O; Cit = NC(=O)NCCC[C@H](N)C(=O)O; Pip = O=C(O)[C@@H]1CCCCN1; Carboxymethyl = O=C(O)C*; NMeA = CN[C@@H](C)C(=O)O; Nle = CCCC[C@H](N)C(=O)O; Orn = NCCC[C@H](N)C(=O)O; Dab = NCC[C@H](N)C(=O)O; Dap = NC[C@H](N)C(=O)O

The target of the test is T1, PE-labeled human PD-L1-Ig binding to Jurkat cell line over-expressing human PD-1 (Jurkat-PD-1) (Homo sapiens, UniProt Q15116).
T1 construct: expressed in transfected cells; host or cells: Jurkat
T1 sequence (Q15116 25-288): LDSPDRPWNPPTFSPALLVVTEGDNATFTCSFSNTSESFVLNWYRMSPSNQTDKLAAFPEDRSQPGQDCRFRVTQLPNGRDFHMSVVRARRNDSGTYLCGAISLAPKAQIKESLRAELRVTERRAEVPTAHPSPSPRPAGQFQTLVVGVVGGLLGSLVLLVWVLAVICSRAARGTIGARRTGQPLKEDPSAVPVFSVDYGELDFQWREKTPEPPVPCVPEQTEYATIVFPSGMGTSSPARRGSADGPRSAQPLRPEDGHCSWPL
Briefly: Jurkat-PD-1 Cell Binding High-Content Screening Assay (CBA): Method 1. To be noted: Jurkat-hPD-1 cells, PE-labeled PD-L1-Ig 20 nM final; read-out: Jurkat HPDL1 PD1 IC50 (uM) (Method 1).
Take `CC(C)C[C@@H]1NC(=O)[C@H](CCN)NC(=O)[C@@H](CC(C)C)NC(=O)[C@H](C)N(C)C(=O)[C@H](CCCNC(=N)N)NC(=O)[C@H](Cc2ccc(-c3ccccc3)cc2)NC(=O)[C@H](C(C)C)NC(=O)[C@H](Cc2c[nH]c3ccccc23)NC(=O)[C@H](CC(=O)O)NC(=O)[C@H](Cc2ccc(C#N)cc2)NC(=O)[C@H](Cc2ccncc2)NC(=O)CSC[C@@H](C(=O)N[C@@H](C)C(N)=O)NC(=O)[C@H]([C@@H](C)O)NC(=O)[C@H](C(C)C)NC1=O` [Compound 1446] ({CH2CO}-[4Pal][Phe(4-CN)]DWV[Bip]R[NMeA][dL][Dab]LVTCA-NH2; thioether N-14): the IC50 was found to be 0.08 µM.

For the compound `CC(=O)NCCC[C@@H]1NC(=O)[C@H](Cc2ccc(-c3ccccc3)cc2)NC(=O)[C@H](Cc2ccc(O)cc2)NC(=O)[C@H](Cc2cccc(C)c2)NC(=O)[C@H](CC(=O)O)NC(=O)[C@H](Cc2ccc(OCC(=O)O)cc2)NC(=O)[C@H](CCCNC(=N)N)NC(=O)CSC[C@@H](C(N)=O)NC(=O)[C@H]([C@@H](C)O)NC(=O)[C@H](C(C)C)NC(=O)[C@H](CC2CCCCC2)NC(=O)[C@H](CCN)NC(=O)[C@@H](CC(C)C)NC(=O)[C@H](C)N(C)C1=O` [Compound 1869] ({CH2CO}-RY(Carboxymethyl)D[Phe(3-Me)]Y[Bip][Orn](Ac)[NMeA][dL][Dab][Cha]VTC-NH2; thioether N-14), the IC50 stood at 0.05 µM.

Consider `CCCC[C@@H]1NC(=O)[C@H](CCCNC(=N)N)NC(=O)[C@@H](CC(C)C)NC(=O)[C@H](C)N(C)C(=O)[C@H]([C@@H](C)CC)NC(=O)[C@H](Cc2ccc(-c3ccccc3)cc2)NC(=O)[C@H](C(C)C)NC(=O)[C@H](Cc2c[nH]c3ccccc23)NC(=O)[C@H](CC(=O)O)NC(=O)[C@H](Cc2ccc(O)cc2)NC(=O)[C@H](Cc2ccc(OCC(=O)O)cc2)NC(=O)CSC[C@@H](C(=O)N[C@@H](C)C(N)=O)NC(=O)[C@H]([C@@H](C)O)NC(=O)[C@H](C(C)C)NC1=O` [Compound 1497] ({CH2CO}-Y(Carboxymethyl)YDWV[Bip]I[NMeA][dL]R[Nle]VTCA-NH2; thioether N-14), for which the half-maximal inhibitory concentration (IC50) worked out at 0.2 µM.

`Cc1cccc(C[C@@H]2NC(=O)[C@H](CC(=O)O)NC(=O)[C@H](Cc3ccc(C(=O)O)cc3)NC(=O)[C@H](CN)NC(=O)CSC[C@@H](C(=O)N[C@@H](C)C(N)=O)NC(=O)[C@H]([C@@H](C)O)NC(=O)[C@H](C(C)C)NC(=O)[C@H](CC(C)C)NC(=O)[C@H](CCN)NC(=O)[C@@H](CC(C)C)NC(=O)[C@H](C)N(C)C(=O)[C@H](CCCNC(N)=O)NC(=O)[C@H](Cc3ccc(-c4ccccc4)cc3)NC(=O)[C@H](C(C)C)NC2=O)c1` [Compound 1429] ({CH2CO}-[Dap][Phe(4-COOH)]D[Phe(3-Me)]V[Bip][Cit][NMeA][dL][Dab]LVTCA-NH2; thioether N-14): the IC50 is 0.01 µM.

With `CC(C)C[C@@H]1NC(=O)[C@H](CCCNC(=N)N)NC(=O)[C@@H](Cc2ccc(O)cc2)NC(=O)[C@H](C)N(C)C(=O)[C@H](CCCNC(=N)N)NC(=O)[C@H](Cc2ccc(-c3ccccc3)cc2)NC(=O)[C@H](C(C)C)NC(=O)[C@H](Cc2c[nH]c3ccccc23)NC(=O)[C@H](CC(=O)O)NC(=O)[C@H](Cc2ccc(O)cc2)NC(=O)[C@H](Cc2ccccc2)NC(=O)CSC[C@@H](C(=O)NCC(N)=O)NC(=O)[C@H](CO)NC(=O)[C@H](C(C)C)NC1=O` [Compound 1020] ({CH2CO}-FYDWV[Bip]R[NMeA][dY]RLVSCG-NH2; thioether N-14), the 50% inhibitory concentration (IC50) came out at 0.07 µM.

For the compound `CC(C)C[C@@H]1NC(=O)[C@H](Cc2c[nH]c3ccccc23)NC(=O)[C@H](CC(=O)O)NC(=O)[C@H](Cc2ccc(O)cc2)NC(=O)[C@H](Cc2ccccc2)NC(=O)CSC[C@@H](C(=O)N[C@@H](C)C(N)=O)NC(=O)[C@H]([C@@H](C)O)NC(=O)[C@H](C(C)C)NC(=O)[C@H](CC(C)C)NC(=O)[C@H](CCN)NC(=O)[C@@H](C)NC(=O)[C@H](C)N(C)C(=O)[C@H](C(C)C)NC(=O)[C@H](Cc2ccc(-c3ccccc3)cc2)NC1=O` [Compound 1478] ({CH2CO}-FYDWL[Bip]V[NMeA][dA][Dab]LVTCA-NH2; thioether N-14), the IC50 was determined as 0.02 µM.

In the case of `CC(C)C[C@@H]1NC(=O)[C@H](CCN)NC(=O)[C@@H](CC(C)C)NC(=O)[C@H](C)N(C)C(=O)[C@H](CCCNC(N)=O)NC(=O)[C@H](Cc2ccc(-c3ccccc3)cc2)NC(=O)[C@H](C(C)C)NC(=O)[C@H](Cc2c[nH]c3ccccc23)NC(=O)[C@H](CC(=O)O)NC(=O)[C@H](Cc2cccnc2)NC(=O)[C@H](Cc2cccnc2)NC(=O)CSC[C@@H](C(=O)N[C@@H](C)C(N)=O)NC(=O)[C@H]([C@@H](C)O)NC(=O)[C@H](C(C)C)NC1=O` [Compound 1339] ({CH2CO}-[3Pal][3Pal]DWV[Bip][Cit][NMeA][dL][Dab]LVTCA-NH2; thioether N-14), the IC50 turned out to be 0.05 µM.

Regarding `CC(C)C[C@@H]1NC(=O)[C@H](CCCN)NC(=O)[C@@H](CC(C)C)NC(=O)[C@H](C)N(C)C(=O)[C@H](CCCNC(=N)N)NC(=O)[C@H](Cc2ccc(-c3ccccc3)cc2)NC(=O)[C@H](C(C)C)NC(=O)[C@H](Cc2c[nH]c3ccccc23)NC(=O)[C@H](CC(=O)O)NC(=O)[C@H](Cc2cnc[nH]2)NC(=O)[C@H](Cc2cnc[nH]2)NC(=O)CSC[C@@H](C(=O)N[C@@H](C)C(N)=O)NC(=O)[C@H]([C@@H](C)O)NC(=O)[C@H](C(C)C)NC1=O` [Compound 1136] ({CH2CO}-HHDWV[Bip]R[NMeA][dL][Orn]LVTCA-NH2; thioether N-14), the IC50 was found to be 0.21 µM.

As for `Cc1cccc(C[C@@H]2NC(=O)[C@H](CC(=O)O)NC(=O)[C@H](Cc3ccc(OCC(=O)O)cc3)NC(=O)[C@H](CN)NC(=O)CSC[C@@H](C(N)=O)NC(=O)[C@H](CO)NC(=O)[C@H](C(C)C)NC(=O)[C@H](CC3CCCCC3)NC(=O)[C@H](CCN)NC(=O)[C@@H](CC(C)C)NC(=O)[C@@H]3CCCCN3C(=O)[C@H](Cc3ccc(OCC(=O)O)cc3)NC(=O)[C@H](Cc3ccc(-c4ccccc4)cc3)NC(=O)[C@H](Cc3ccc(OCC(=O)O)cc3)NC2=O)c1` [Compound 1892] ({CH2CO}-[Dap]Y(Carboxymethyl)D[Phe(3-Me)]Y(Carboxymethyl)[Bip]Y(Carboxymethyl)[Pip][dL][Dab][Cha]VSC-NH2; thioether N-14), the concentration for half-maximal inhibition (IC50) amounted to 0.06 µM.

For `COc1cccc(C[C@@H]2NC(=O)[C@H](CC(=O)O)NC(=O)[C@H](Cc3ccc(O)cc3)NC(=O)[C@H](CC(N)=O)NC(=O)CSC[C@@H](C(=O)N[C@@H](C)C(N)=O)NC(=O)[C@H]([C@@H](C)O)NC(=O)[C@H](C(C)C)NC(=O)[C@H](CC(C)C)NC(=O)[C@H](CCCNC(N)=O)NC(=O)[C@@H](CC(C)C)NC(=O)[C@H](C)N(C)C(=O)[C@H](CCCNC(=N)N)NC(=O)[C@H](Cc3ccc(-c4ccccc4)cc3)NC(=O)[C@H](C(C)C)NC2=O)c1` [Compound 1191] ({CH2CO}-NYD[Phe(3-OMe)]V[Bip]R[NMeA][dL][Cit]LVTCA-NH2; thioether N-14), the IC50 was 0.07 µM.

In the case of `CC(C)C[C@@H]1NC(=O)[C@H](CCCNC(=N)N)NC(=O)[C@@H](CC(C)C)NC(=O)[C@H](C)N(C)C(=O)[C@H](CCCNC(=N)N)NC(=O)[C@H](Cc2ccc(-c3ccccc3)cc2)NC(=O)[C@H](C(C)C)NC(=O)[C@H](Cc2c[nH]c3ccccc23)NC(=O)[C@H](CC(=O)O)NC(=O)[C@H](Cc2ccc(O)cc2)NC(=O)[C@H](CC(N)=O)NC(=O)CSC[C@@H](C(=O)N[C@@H](C)C(N)=O)NC(=O)[C@H]([C@@H](C)O)NC(=O)[C@H](C(C)C)NC1=O` [Compound 1045] ({CH2CO}-NYDWV[Bip]R[NMeA][dL]RLVTCA-NH2; thioether N-14), the IC50 worked out at 0.2 µM.

A word on the IC50: it is the midpoint of a concentration-inhibition curve.
